These results are taken from patent US11464770B2, “Anticancer pharmaceutical composition” (NATIONAL CANCER CENTER, priority 2016, dated 2022).

Structures are written as SMILES. Read-outs that look alike come from different tables or passages of the source.

The test system of experiment [1] is breast cancer cell lines (e.g. MDA-MB-231, SK-BR-3, MDA-MB-468, HCC1954). As to the kind of experiment: Cell based assay, cell viability (CellTiter-Glo), breast cancer cell lines. As to conditions: 72 hours treatment, CellTiter-Glo cell viability. The method, boiled down:
(§1)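 Following a 24 h pre-culture in plates, cells receive test compound (final 0 to 2 μM) for 72 hours. Luminescent quantitation of cellular ATP gives viability.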

In a further experiment the test system is melanoma cell lines. As to the kind of experiment: Cell based assay, cell viability (CellTiter-Glo), melanoma cell lines. As to conditions: Homo sapiens; LOX-IMVI cell line. The method, boiled down:
as §1

Where [2] appears, read: Homo sapiens, BT-20 cells, read-out: IC50, Breast cancer cell line BT-20.
Setting [3] is: Homo sapiens, HCC1395 cells, read-out: IC50, Breast cancer cell line HCC1395.
The mark [4] stands for this setting: Homo sapiens, HCC1954 cells, read-out: IC50, Breast cancer cell line HCC1954.
The mark [5] stands for this setting: Homo sapiens, JIMT-1 cells, read-out: IC50, Breast cancer cell line JIMT-1.
[6] abbreviates: Homo sapiens, MCF7 cells, read-out: IC50, Breast cancer cell line MCF7.
Setting [7] is: Homo sapiens, MDA-MB-231 cells, read-out: IC50, Breast cancer cell line MDA-MB-231.
Where [8] appears, read: Homo sapiens, MDA-MB-468 cells, read-out: IC50, Breast cancer cell line MDA-MB-468.
The mark [9] stands for this setting: Homo sapiens, SK-BR-3 cells, read-out: IC50, Breast cancer cell line SK-BR-3.
The mark [10] stands for this setting: MDA-MB-231-L/DOX cells, read-out: IC50, Breast cancer cell line MDA-MB-231-L/DOX.

As for `COc1cccc2[nH]c([S+]([O-])Cc3cc(C)on3)c(C(C)=O)c(=O)c12` (stereo not shown) [Compound 94, 3-acetyl-5-methoxy-2-(((5-methylisoxazol-3-yl)methyl)sulfinyl)quinolin-4(1H)-one], the IC50 was over 2 µM in experiment [1] (setting [2]); over 10 µM in experiment [1] (setting [3]); over 2 µM in experiment [1] (setting [4]); over 10 µM in experiment [1] (setting [5]); over 2 µM in experiment [1] (setting [6]); over 2 µM in experiment [1] (setting [7]). The IC50 in experiment [1] (setting [8]) was 1.85 µM; in experiment [1] (setting [9]), 1.85 µM; in experiment [1] (setting [10]) it was over 2 µM; with melanoma cell lines, over 2 µM.
In the case of `Cc1cc(C[S+]([O-])c2[nH]c3c(Br)ccc(Cl)c3c(=O)c2C(=O)C2CC2)no1` (stereo not shown) [Compound 96, 8-bromo-5-chloro-3-(cyclopropanecarbonyl)-2-(((5-methylisoxazol-3-yl)methyl)sulfinyl)quinolin-4(1H)-one], the IC50 is over 2 µM in experiment [1] (setting [2]); over 10 µM in experiment [1] (setting [3]); 1.04 µM in experiment [1] (setting [4]); over 10 µM in experiment [1] (setting [5]); over 2 µM in experiment [1] (setting [6]); over 2 µM in experiment [1] (setting [7]). The IC50 is 0.98 µM in experiment [1] (setting [8]), 0.98 µM in experiment [1] (setting [9]), over 2 µM in experiment [1] (setting [10]) and over 2 µM in the experiment with melanoma cell lines.
Take `Cc1cc(C[S+]([O-])c2[nH]c3c(Cl)ccc(Cl)c3c(=O)c2C(=O)C2CC2)no1` (stereo not shown) [Compound 97, 5,8-dichloro-3-(cyclopropanecarbonyl)-2-(((5-methylisoxazol-3-yl)methyl)sulfinyl)quinolin-4(1H)-one]: the IC50 is over 2 µM in experiment [1] (setting [2]); over 10 µM in experiment [1] (setting [3]); 0.78 µM in experiment [1] (setting [4]); over 10 µM in experiment [1] (setting [5]); over 2 µM in experiment [1] (setting [6]); 1.78 µM in experiment [1] (setting [7]). Moreover, the IC50 came out at 0.76 µM in experiment [1] (setting [8]), 0.76 µM in experiment [1] (setting [9]), 1.13 µM in experiment [1] (setting [10]) and 1.03 µM with melanoma cell lines.
Take `CC(=O)c1c([S+]([O-])Cc2ccc(C#N)s2)[nH]c2c(Br)ccc(Cl)c2c1=O` (stereo not shown) [Compound 98, 5-(((3-acetyl-8-bromo-5-chloro-4-oxo-1,4-dihydroquinolin-2-yl)sulfinyl)methyl)thiophene-2-carbonitrile]: the IC50 in experiment [1] (setting [2]) is over 2 µM; in experiment [1] (setting [3]), over 10 µM; in experiment [1] (setting [4]) it was 1.31 µM; in experiment [1] (setting [5]), over 10 µM; in experiment [1] (setting [6]) it was over 2 µM; in experiment [1] (setting [7]), 1.86 µM. In addition, the IC50 in experiment [1] (setting [8]) was 1 µM; in experiment [1] (setting [9]), 1 µM; in experiment [1] (setting [10]), over 2 µM; with melanoma cell lines, 1.34 µM.
`CC(=O)c1c([S+]([O-])Cc2ccc(-n3cccn3)nc2)[nH]c2c(Br)ccc(Cl)c2c1=O` (stereo not shown) [Compound 99, 2-(((6-(1H-pyrazol-1-yl)pyridin-3-yl)methyl)sulfinyl)-3-acetyl-8-bromo-5-chloroquinolin-4(1H)-one]: the IC50 is over 2 µM in experiment [1] (setting [2]); over 2 µM in experiment [1] (setting [3]); 0.78 µM in experiment [1] (setting [4]); over 10 µM in experiment [1] (setting [5]); over 2 µM in experiment [1] (setting [6]); 1.17 µM in experiment [1] (setting [7]). The IC50 in experiment [1] (setting [8]) is 0.67 µM; in experiment [1] (setting [9]) it was 0.67 µM; in experiment [1] (setting [10]), over 2 µM; in the experiment on melanoma cell lines, 0.87 µM.
`CC(=O)c1c([S+]([O-])Cc2ccc(N)nc2)[nH]c2c(Br)ccc(Cl)c2c1=O` (stereo not shown) [Compound 100, 3-acetyl-2-(((6-aminopyridin-3-yl)methyl)sulfinyl)-8-bromo-5-chloroquinolin-4(1H)-one]: the IC50 in experiment [1] (setting [2]) is over 2 µM; in experiment [1] (setting [3]), over 10 µM; in experiment [1] (setting [4]), over 2 µM; in experiment [1] (setting [5]), over 10 µM; in experiment [1] (setting [6]), over 2 µM; in experiment [1] (setting [7]), over 2 µM. Besides, the IC50 (in experiment [1] (setting [8]); in experiment [1] (setting [9]); in experiment [1] (setting [10]); in the experiment on melanoma cell lines) was over 2 µM throughout.
Consider `O=C(c1c([S+]([O-])Cc2ccc(SC(F)(F)F)cc2)[nH]c2c(Br)ccc(Cl)c2c1=O)C1CC1` (stereo not shown) [Compound 101, 8-bromo-5-chloro-3-(cyclopropanecarbonyl)-2-((4-((trifluoromethyl)thio)benzyl)sulfinyl)quinolin-4(1H)-one], for which the IC50 was over 2 µM in experiment [1] (setting [2]); over 10 µM in experiment [1] (setting [3]); 1.22 µM in experiment [1] (setting [4]); over 10 µM in experiment [1] (setting [5]); over 2 µM in experiment [1] (setting [6]); over 2 µM in experiment [1] (setting [7]). For the same molecule, the IC50 was 1.67 µM in experiment [1] (setting [8]), 1.67 µM in experiment [1] (setting [9]), over 2 µM in experiment [1] (setting [10]) and over 2 µM in the experiment on melanoma cell lines.
Take `CC(=O)c1c([S+]([O-])Cc2ccc(C(F)(F)F)nc2C)[nH]c2c(Br)ccc(Cl)c2c1=O` (stereo not shown) [Compound 102, 3-acetyl-8-bromo-5-chloro-2-(((2-methyl-6-(trifluoromethyl)pyridin-3-yl)methyl)sulfinyl)quinolin-4(1H)-one]: the IC50 in experiment [1] (setting [2]) was over 2 µM; in experiment [1] (setting [3]), over 10 µM; in experiment [1] (setting [4]) it was 1.02 µM; in experiment [1] (setting [5]) it was over 10 µM; in experiment [1] (setting [6]) it was over 2 µM; in experiment [1] (setting [7]), 1.72 µM. In addition, the IC50 was 1.35 µM in experiment [1] (setting [8]), 0.85 µM in experiment [1] (setting [9]), over 2 µM in experiment [1] (setting [10]) and 0.86 µM in the experiment with melanoma cell lines.
On to `CC(=O)c1c([S+]([O-])Cc2ccc(NS(C)(=O)=O)cc2)[nH]c2c(Br)ccc(Cl)c2c1=O` (stereo not shown) [Compound 103, N-(4-(((3-acetyl-8-bromo-5-chloro-4-oxo-1,4-dihydroquinolin-2-yl)sulfinyl)methyl)phenyl)methane-sulfonamide], for which the IC50 in experiment [1] (setting [2]) is over 2 µM; in experiment [1] (setting [3]) it was over 10 µM; in experiment [1] (setting [4]), over 2 µM; in experiment [1] (setting [5]) it was over 10 µM; in experiment [1] (setting [6]) it was over 2 µM; in experiment [1] (setting [7]), over 2 µM. Moreover, the IC50 in experiment [1] (setting [8]) was over 2 µM; in experiment [1] (setting [9]), 1.74 µM; in experiment [1] (setting [10]), over 2 µM; with melanoma cell lines it was over 2 µM.
On to `CC(=O)c1c([S+]([O-])Cc2ccc(Cl)nc2)[nH]c2c(Br)ccc(Cl)c2c1=O` (stereo not shown) [Compound 104, 3-acetyl-8-bromo-5-chloro-2-(((6-chloropyridin-3-yl)methyl)sulfinyl)quinolin-4(1H)-one], for which the IC50 is over 2 µM in experiment [1] (setting [2]); over 10 µM in experiment [1] (setting [3]); 1.05 µM in experiment [1] (setting [4]); over 10 µM in experiment [1] (setting [5]); over 2 µM in experiment [1] (setting [6]); 1.54 µM in experiment [1] (setting [7]). Also, the IC50 in experiment [1] (setting [8]) is 1.46 µM; in experiment [1] (setting [9]), 0.93 µM; in experiment [1] (setting [10]) it was over 2 µM; with melanoma cell lines it was 0.88 µM.
Turning to `COCCNc1ccc(C[S+]([O-])c2[nH]c3c(Br)ccc(Cl)c3c(=O)c2C(C)=O)cn1` (stereo not shown) [Compound 105, 3-acetyl-8-bromo-5-chloro-2-(((6-((2-methoxyethyl)amino)pyridin-3-yl)methyl)sulfinyl)quinolin-4(1H)-one], the IC50 in experiment [1] (setting [2]) was over 2 µM; in experiment [1] (setting [3]), over 10 µM; in experiment [1] (setting [4]), over 2 µM; in experiment [1] (setting [5]), over 10 µM; in experiment [1] (setting [6]), over 2 µM; in experiment [1] (setting [7]), over 2 µM. Moreover, the IC50 (in experiment [1] (setting [8]); in experiment [1] (setting [9]); in experiment [1] (setting [10]); in the experiment with melanoma cell lines) was over 2 µM each time.
On to `CC(=O)c1c([S+]([O-])Cc2nonc2C)[nH]c2c(Br)ccc(Cl)c2c1=O` (stereo not shown) [Compound 106, 3-acetyl-8-bromo-5-chloro-2-(((4-methyl-1,2,5-oxadiazol-3-yl)methyl)sulfinyl)quinolin-4(1H)-one], for which the IC50 in experiment [1] (setting [2]) was over 2 µM; in experiment [1] (setting [3]), over 10 µM; in experiment [1] (setting [4]), over 2 µM; in experiment [1] (setting [5]) it was over 10 µM; in experiment [1] (setting [6]), over 2 µM; in experiment [1] (setting [7]) it was over 2 µM. In addition, the IC50 (in experiment [1] (setting [8]); in experiment [1] (setting [9]); in experiment [1] (setting [10]); in the experiment with melanoma cell lines) was over 2 µM throughout.
Regarding `CC(=O)c1c([S+]([O-])Cc2cnc3[nH]ccc3c2)[nH]c2c(Br)ccc(Cl)c2c1=O` (stereo not shown) [Compound 107, 2-(((1H-pyrrolo[2,3-b]pyridin-5-yl)methyl)sulfinyl)-3-acetyl-8-bromo-5-chloroquinolin-4(1H)-one], the IC50 in experiment [1] (setting [2]) was over 2 µM; in experiment [1] (setting [3]), over 10 µM; in experiment [1] (setting [4]), over 2 µM; in experiment [1] (setting [5]) it was over 10 µM; in experiment [1] (setting [6]), over 2 µM; in experiment [1] (setting [7]), over 2 µM. Moreover, the IC50 (in experiment [1] (setting [8]); in experiment [1] (setting [9]); in experiment [1] (setting [10]); in the experiment on melanoma cell lines) was over 2 µM in each case.
